Data set [1] relates to 66 c1.4 GFP murine mammary tumor cells. Briefly: Tumor growth of 66 c1.4-GFP mammary tumor cells in Balb/c mice (tumor volume). The note with it: Example 18: liposomal formulation by aerosol, 75 mg in nebulizer/day.
Experimental: 66 c1.4-GFP cells were harvested by trypsinization, centrifuged, resuspended in McCoy's media, containing no supplements at a density of 2×10^5/100 μl. Mice were injected in the inguinal area at a point equal distance between the 4th and 5th nipples on the right side using a 23 gauge needle.
50 mice were assigned (10 per group) to aerosol treatment, aerosol control, oral treatment, oral control, or to the no treatment group so that the average tumor volume for all groups were closely matched. […] Tumors were measured using calipers every other day, and volumes were calculated using the formula: volume (mm^3) [width (mm)^2×length (mm)]/2. Body weights were determined weekly.
Balb/c mice were injected with 200,000 66 c1.4 GFP cells subcutaneous in the mammary fat pad area between the 4th and 5th nipple on the right side of the body.
Mice are injected with 200,000 66 c1.4 GFP murine mammary tumor cells as described on day 0. Treatments are initiated on day 9 when tumors reached 1-3 mm in size. Aerosol treatments of α-TEA liposomes (5 mg α-TEA/mouse) are administered daily for 16 days (FIG. 8). Data represent the mean+/−Standard Error (SE), N=10 mice for control and treatment groups.
Balb/c mice were injected s.c. with 2×10^5 66 c1.4-GFP cells in the inguinal area between the 4th and 5th nipple on the right side of the body. When tumors reached 2×2-4×4 mm (9 days after tumor injection), mice were placed into 5 groups ((Group 1: untreated control, Group 2: liposome/aerosol control, Group 3: liposomal α-TEA aerosol treatment, Group 4: peanut oil/gavage control, Group 5: α-TEA in peanut oil/gavage treatment) of 10 mice/group) such that the mean tumor volume of each group was closely matched. Daily treatments were initiated on day 9 after tumor injection.
Balb/c mice were injected with 200,000 66 c1.4 GFP cells subcutaneous in the mammary fat pad area between the 4th and 5th nipple on the right side of the body. […] Animals were treated with α-TEA in liposome, vitamin E succinate in liposome, or control liposome alone via aerosol, 7 days per week, for 21 days. Animals were given 75 mg compound via nebulization per day such that each animal received 36 μg compound per day.
The size of the tumors, 9-21 days after injection of 200,000 66 c1.4 GFP cells between the 4th and 5th nipple on the right side of each mouse, is determined. Treatments are initiated on day 9 after tumor inoculation. Each group consists of n=10+/−SE. Gavage Treatment=Treatments of 5 mg of α-TEA in ethanol and peanut oil (0.1 ml volume) are administered daily starting on day 9 after tumor inoculation and continuing through day 21. Gavage Control=Mice received peanut oil and ethanol alone (0.1 ml volume)/daily, starting on day 9 after tumor inoculation and continuing through day 21. Data (tumor size) are depicted as the mean+/−standard error for days 9, 11, 13, 15, 17, 19, and 21.
Balb/c mice were injected with 200,000 66 c1.4 GFP cells subcutaneous in the mammary fat pad area between the 4th and 5th nipple on the right side of the body. […] Animals were treated with α-TEA in liposome vitamin E succinate in liposome, or control liposome alone via oral gavage, 2 times per day, 7 days per week, for 21 days. Animals were given a total of 6 mg compound per day.
The subject of data set [2] is 66 c1.4-GFP tumors. Put plainly: KI-67 immunohistochemistry of cell proliferation in tumors. In kind it is in vivo, Balb/c mice. The note with it: liposomal formulation by aerosol, vs control.
Data set [3] has as its system 66 c1.4 GFP murine mammary tumor cells. Briefly: TUNEL assay for apoptosis in vivo in 66 c1.4-GFP tumor sections. The note with it: liposomal formulation by aerosol, vs control. Further details: species or system Balb/c mice.
Text: Deparaffinized sections (5 μm) of tumor tissue were used to assess apoptosis using reagents supplied in the ApopTag In Situ Apoptosis Detection kit (Intergen, Purchase, N.Y.) according to the manufacturer's instructions. Nuclei that stained brown were scored as positive for apoptosis and those that stained blue were scored as negative. At least sixteen 400× microscopic fields were scored per tumor. Data are presented as the mean±S.E. number of apoptotic cells counted in three separate tumors from each group. Pictures of tumor tissue were taken at 1000× magnification.
The subject of data set [4] is 66 c1.4-GFP tumors. Put plainly: CD31 immunohistochemistry of tumor blood vessel numbers. In kind it is in vivo, Balb/c mice. The note with it: liposomal formulation by aerosol, vs control.
In data set [5] the test system is 66 c1.4 GFP murine mammary tumor cells. Put plainly: Lung and lymph node metastases of 66 c1.4-GFP tumors in Balb/c mice. In kind it is in vivo. The note with it: Example 33: liposomal aerosol; α-TEA 5 mg/d, 9NC 2 μg/d in nebulizer; listed as Lip/9NC. The text has this: Metastastic lesions in the five lung lobes were counted visually at time of sacrifice. Fluorescent green micro-metastatic cancer cell colonies in the left lung lobe and lymph nodes were counted using a Nikon fluorescence microscope (TE-200) with a 20×objective (200× magnification) and Image-Pro Plus (version 4.1; Media Cybernetics, Silver Spring, Md.) software associated with the microscope. Fluorescent lesions were separated into three size grouping: <5 μm, 5-10 μm and >10 μm.
At sacrifice, lungs were taken, examined visually for metastatic lesions and frozen for analyses of micrometastases by fluorescence.
Use of a Nikon fluorescence microscope and Image-Pro Plus software permitted measurement of green fluorescing micrometastases into three size groupings of <5 μm, 5-10 μm and >10 μm.
At sacrifice, the left lung lobe of each mouse of flash frozen and saves for detection of GFP expressing micrometatstic lesions via fluorescent microscopy.

The conditions of data set [6]: after thirty minutes, intramuscular delivery; cited from earlier work.

On to `Cc1c(C)c2c(c(C)c1O)CCC(C)(CCCC(C)CCCC(C)CCCC(C)C)O2` (racemic) [dl-α-tocopherol], for which the “inhibition of tumor growth” value in data set [1] (day 15 of treatment) stood at 81%; in data set [1] (day 17 of treatment), 73%. The “% Reduction of KI67 cell proliferation” value with 66 c1.4-GFP tumors [2] was 33%. In data set [3], the “% Enhanement of TUNEL positive apoptotic cells” value was found to be 44%. Besides, the “% Reduction of CD31 tumor blood vessel numbers” value with 66 c1.4-GFP tumors [4] amounted to 51%.

On to `CC[C@@]1(O)C(=O)OCc2c1cc1n(c2=O)Cc2cc3c([N+](=O)[O-])cccc3nc2-1` [9-nitrocamptothecin, reference compound], for which the “Inhibition (%) Metastases Lymphnode” value in data set [5] is recorded as 60%. The “Levels of 9-nitrocamptothecin in the brain” value in data set [6] is 0.

The values above are taken from US20030236301A1, “Liposomal delivery of vitamin E based compounds” (priority 2001, published 2003).
